# Measured values from patent US10035810B2, “5,6-dihydro-4H-benzo[b]thieno-[2,3-d]azepine derivative” (PULMOCIDE LIMITED, priority 2014, dated 2018).
# pIC50: −log10 of the molar value.
# Columns and labels:
# RSV A2 F-protein = assay: RSV F protein expression in BEAS2B bronchial epithelial cells; type: cell-based; details: human respiratory syncytial virus, BEAS-2B, 72 h, read-out: RSV A2 F-protein IC50
# Procedure: Assessment of RSV F Protein Expression in BEAS2B Bronchial Epithelial Cells
# An early event which follows the infection of epithelial cells by RSV is the expression of RSV F-protein on the cells' surface. BEAS2B cells (SV40-immortalised human bronchial epithelial cell line) were grown in 96 well plates. Once more than 70% confluent, cells were infected with RSV A2 (#0709161v, NCPV, Public Health England, Wiltshire) at an MOI of 0.01 in clear RPMI-1640 medium (Life technologies, Paisley, UK) with 2% FBS (Life technologies, Paisley, UK), and incubated for 3 days (37° C./5% CO2).
# Supernatant was aspirated and the cells were fixed with 4% formaldehyde (100 μL in PBS solution) for 20 min, washed 3 times with washing buffer (200 μL; PBS containing 0.05% Tween-20) and incubated with blocking solution (100 μL; 5% Marvel milk in PBS) for 1 hr. […] The resultant signal was determined colourimetrically (OD: 450 nm with a reference wavelength of 655 nm) in a microplate reader (Multiskan FC®, ThermoFisher Scientific). […] After washing with PBS (200 μL) three times, 1% SDS (100 μL) was added to each well, and plates were shaken lightly for 1 hr prior to reading the absorbance at 595 nm. The measured OD450-655 readings were corrected for cell number by dividing the OD450-655 by the OD595 readings. […]
# RSV A2 = assay: Virus titre in air-liquid interface (ALI) cultured bronchial epithelial cells (plaque assay); type: cell-based, respiratory syncytial virus
# Procedure: Assessment of Virus Titre in Air-Liquid Interface (ALI) Cultured Bronchial Epithelial Cells
# ALI cultured human bronchial epithelial cells were sourced from Epithelix Sàrl (Geneva, Switzerland) and maintained by changing the basal media every 3-4 days, whilst the apical surface was washed once weekly with PBS. On day 0, the apical surface of each well was washed once with sterile PBS (300 μL) and the inserts were transferred to new 24-well plates containing fresh MucilAir culture medium (780 μL; EP04MM). RSV A2 (50 μL; diluted in MucilAir culture medium to give a final MOI of 0.01) was added to cells for 1 hr (37° C./5% CO2). For the purposes of standardizing MOI calculations, each MucilAir insert was estimated to contain 2×10^5 apical facing cells per well. Virus inoculum was removed with a pipette and inserts were washed twice with sterile PBS (300 μL).
# Sampling was conducted by adding sterile PBS (300 μL) to the apical surface of each well for 5 min. The apical sample was then removed and transferred to tubes containing 50% sucrose dissolved in PBS (100 μL) before being stored at −80° C. This harvesting procedure was repeated daily beginning on day 0 and concluding on day 7. […]
# Virus titre was quantified by plaque assay. […] Plaques were counted by eye and confirmed using light microscopy, allowing the calculation of plaque forming units per mL.
smiles,measurement,setting,value
"Cc1cnc(N2CC3(CCOCC3)C2)c(C(=O)Nc2ccc(C(=O)N3CCc4cc(C(=O)Nc5c(C)cccc5F)sc4-c4ccccc43)cc2)c1 [Compound (I), N-(2-fluoro-6-methylphenyl)-6-(4-(5-methyl-2-(7-oxa-2-azaspiro[3.5]nonan-2-yl)nicotinamido)benzoyl)-5,6-dihydro-4H-benzo[b]thieno[2,3-d]azepine-2-carboxamide]",pIC50,RSV A2 F-protein,9.77
same,Inhibition of RSV titre in ALI culture (in words),"RSV A2; early intervention, daily day 0 to day 7, 0.1 μg/mL, over 7 days",complete inhibition
same,Virus titre in ALI culture (in words),"RSV A2; late intervention, administered from day 3, days 6 and 7 post infection",dramatic reduction of virus titre
